From the supplement of paper PMC10307832

How the values were obtained:
Test in all cases: relative viability (nuclei count vs DMSO), 5 days (fraction); higher = more cells survive
FG-4592 = compound: Cc1nc(C(=O)NCC(=O)O)c(O)c2ccc(Oc3ccccc3)cc12 [FG-4592]
Outline: (§1)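 Only plates meeting two conditions passed: control CV below 25% and at least one doubling. Lung cancer cell lines, kept overnight at 37 °C in 1536-well plates, were pinned with five library-drug doses (not always all listed) √10 apart on vehicle-anchored plates and grown 5 days without medium change. A one-step fix, permeabilisation and Hoechst stain preceded 4× imaging and MetaXpress nuclear counting. Viability equals treated-well nuclei divided by vehicle-well nuclei, as the median over plates.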

IU1-47 = compound: CC1=CC(=C(N1C2=CC=C(C=C2)Cl)C)C(=O)CN3CCCCC3 [IU1-47]
Outline: as §1

FG-4592 + Pemetrexed = compound: Cc1nc(C(=O)NCC(=O)O)c(O)c2ccc(Oc3ccccc3)cc12 [FG-4592] + Nc1nc2[nH]cc(CCc3ccc(C(=O)N[C@@H](CCC(=O)O)C(=O)O)cc3)c2c(=O)[nH]1 [Pemetrexed] (partner 0.2 µM)
Outline: (§2)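 Lung cancer cell lines in 1536-well plates were dosed by pin tool the day after seeding, either with one drug alone or with a fixed anchor-drug dose plus five library-drug doses (not always all listed) in √10 steps. After 5 days, cells were fixed and their nuclei stained in one step (final 0.05% Triton X-100, 1% formaldehyde, 1 ug/ml Hoechst), then counted on 4× images. Relative viability is the nuclei count in treated wells divided by that in vehicle wells. Values are medians of duplicate plates.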

IU1-47 + OSI-027 = compound: CC1=CC(=C(N1C2=CC=C(C=C2)Cl)C)C(=O)CN3CCCCC3 [IU1-47] + COc1cccc2cc(-c3nc([C@H]4CC[C@H](C(=O)O)CC4)n4ncnc(N)c34)[nH]c12 [OSI-027] (partner 0.5 µM)
Outline: as §2

Row | Cell Line | relative viability (FG-4592; 0.08 µM) | relative viability (FG-4592; 0.253 µM) | relative viability (FG-4592; 0.8 µM) | relative viability (FG-4592; 2.53 µM) | relative viability (FG-4592; 8 µM) | relative viability (IU1-47; 0.08 µM) | relative viability (IU1-47; 0.253 µM) | relative viability (IU1-47; 0.8 µM) | relative viability (IU1-47; 2.53 µM) | relative viability (IU1-47; 8 µM) | relative viability (FG-4592 + Pemetrexed; first compound 0.08 µM) | relative viability (FG-4592 + Pemetrexed; first compound 0.8 µM) | relative viability (FG-4592 + Pemetrexed; first compound 2.53 µM) | relative viability (FG-4592 + Pemetrexed; first compound 8 µM) | relative viability (IU1-47 + OSI-027; first compound 0.08 µM) | relative viability (IU1-47 + OSI-027; first compound 0.253 µM) | relative viability (IU1-47 + OSI-027; first compound 0.8 µM) | relative viability (IU1-47 + OSI-027; first compound 2.53 µM) | relative viability (IU1-47 + OSI-027; first compound 8 µM) | relative viability (FG-4592 + Pemetrexed; first compound 0.253 µM)
1 | HCC-78 | 0.893 | 0.746 | 0.972 | 0.916 | 1.01 | 0.97 | 0.953 | 1.03 | 0.874 | 0.889 | 0.941 | 0.901 | 0.871 | 0.909 | 0.38 | 0.354 | 0.337 | 0.42 | 0.353 | 
2 | HCC-366 | 0.798 | 1 | 1.02 | 0.964 | 1.05 | 1.03 | 0.969 | 1.04 | 1.04 | 0.879 | 0.182 | 0.242 | 0.181 | 0.258 | 1.07 | 0.934 | 1.17 | 0.692 | 1.27 | 0.148
3 | HCC-827 | 1.03 | 0.988 | 1.02 | 1.02 | 1.03 | 1.09 | 1.05 | 1.05 | 1.08 | 1.09 | 0.232 | 0.235 | 0.26 | 0.255 | 0.944 | 0.895 | 0.85 | 0.889 | 0.543 | 0.255
4 | HOP-62 | 0.997 | 0.957 | 0.943 | 0.96 | 1.01 | 1.09 | 1.05 | 1.09 | 0.779 | 1.09 | 0.287 | 0.35 | 0.304 | 0.324 | 0.918 | 0.93 | 0.901 | 0.771 | 0.712 | 0.317
5 | IA-LM | 0.913 | 0.933 | 0.894 | 0.859 | 0.764 | 1.11 | 1.08 | 1.08 | 1.01 | 0.884 |  |  |  |  |  |  |  |  |  | 
6 | LC-2-ad | 0.997 | 0.924 | 0.973 | 0.925 | 1.09 | 0.981 | 0.997 | 1.07 | 0.673 | 0.889 | 0.29 | 0.269 | 0.26 | 0.288 | 0.86 | 0.81 | 0.75 | 0.546 | 0.787 | 0.29
7 | LCLC-97TM1 | 0.918 | 0.901 | 0.791 | 0.924 | 0.873 | 0.954 | 1.22 | 1.06 | 0.589 | 0.834 | 0.189 |  | 0.145 | 0.171 | 0.62 | 0.551 | 0.531 | 0.583 | 0.513 | 0.152
8 | LCLC-103H | 0.955 | 0.971 | 0.807 | 0.865 | 0.938 | 1.03 | 1.1 | 0.871 | 0.976 | 0.933 | 0.435 | 0.51 | 0.478 | 0.457 | 0.508 | 0.492 | 0.472 | 0.484 | 0.416 | 0.456
9 | LK-2 | 0.78 | 0.918 | 0.685 | 0.883 | 0.778 | 1.23 | 1.05 | 0.988 | 0.905 | 0.934 | 0.26 |  | 0.239 | 0.268 | 0.219 | 0.199 | 0.184 | 0.188 | 0.184 | 0.277
10 | LOU-NH91 | 0.942 | 0.869 | 0.905 | 0.92 | 0.96 | 1.09 | 1.04 | 0.964 | 1.04 | 0.952 | 0.465 | 0.468 | 0.405 | 0.407 | 0.798 | 0.776 | 0.728 | 0.726 | 0.685 | 0.336
11 | LU99A | 0.91 | 0.862 | 0.748 | 0.972 | 0.961 | 0.977 | 0.898 | 1.1 | 0.953 | 0.972 | 0.184 |  | 0.182 | 0.199 | 0.246 | 0.303 | 0.337 | 0.298 | 0.317 | 0.199
12 | LXF-289 | 1.04 | 0.941 | 1.06 | 0.981 | 1.09 | 1.08 | 1.06 | 1.08 | 0.982 | 0.958 | 0.853 | 1.02 | 0.883 | 0.948 | 0.913 | 0.768 | 0.811 | 0.591 | 0.736 | 0.906
13 | NCI-H23 | 0.965 | 0.833 | 0.71 | 0.782 | 0.829 | 0.93 | 0.986 | 1.15 | 0.908 | 0.857 | 0.567 | 0.644 | 0.534 | 0.793 | 0.644 | 0.587 | 0.695 | 0.583 | 0.597 | 0.562
14 | NCI-H322M | 0.812 | 0.907 | 0.844 | 0.897 | 0.89 | 0.972 | 1.02 | 0.919 | 0.922 | 0.925 |  | 0.613 | 0.546 | 0.63 | 0.677 | 0.553 | 0.632 | 0.568 | 0.553 | 0.614
15 | NCI-H727 | 0.88 | 0.921 | 0.894 | 0.944 | 0.992 | 1.03 | 0.938 | 1.12 | 0.755 | 0.867 |  |  |  |  | 0.634 | 0.659 | 0.724 | 0.525 | 0.454 | 
16 | NCI-H1299 | 0.974 | 0.98 | 0.982 | 0.99 | 1.02 | 0.995 | 1.05 | 1.06 | 1 | 1.02 |  |  |  |  |  |  |  |  |  | 
17 | NCI-H1623 | 0.964 | 0.824 | 0.858 | 1.05 | 0.769 | 1.04 | 0.981 | 0.974 | 0.812 | 0.882 |  |  |  |  | 0.452 | 0.451 | 0.449 | 0.434 | 0.391 | 
18 | NCI-H1703 | 0.901 | 0.823 | 0.935 | 0.904 | 0.772 | 1.03 | 0.75 | 0.894 | 0.921 | 0.922 |  |  |  |  |  |  |  |  |  | 
